Our source for the T/C values is PubChem BioAssay AID330 (DTP/NCI, 2004).

The assay concerns P388 leukemia ip, CD2F1 mice, survival T/C. As to the kind of experiment: NCI In Vivo Anticancer Drug Screen. Data for tumor model P388 Leukemia (intraperitoneal) in CD2F1 (CDF1) mice. The settings on record: endpoint: median survival time, higher = longer survival. The procedure, abridged:
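Mice carrying the transplanted tumor received test compound or vehicle. Survival was recorded in each group, and the value is the treated-group measurement divided by that of the vehicle-treated control group.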

[1] abbreviates: dose: 50.0 mg/kg/injection, schedule: Q01DX009 (ip), vehicle: saline with Tween-80.
Where [2] appears, read: dose: 100.0 mg/kg/injection, schedule: Q01DX009 (ip), vehicle: saline with Tween-80.
The mark [3] stands for this setting: dose: 200.0 mg/kg/injection, schedule: Q01DX009 (ip), vehicle: saline with Tween-80.
Setting [4] is: dose: 60.0 mg/kg/injection, schedule: Q01DX005 (ip), vehicle: Klucel (hydroxypropylcellulose) (HPC).
Setting [5] is: dose: 120.0 mg/kg/injection, schedule: Q01DX005 (ip), vehicle: Klucel (hydroxypropylcellulose) (HPC).
Where [6] appears, read: dose: 25.0 mg/kg/injection, schedule: Q01DX009 (ip), vehicle: saline with Tween-80.
[7] abbreviates: dose: 50.0 mg/kg/injection, schedule: Q01DX009 (ip), vehicle: Klucel (hydroxypropylcellulose) (HPC).
The mark [8] stands for this setting: dose: 50.0 mg/kg/injection, schedule: Q01DX005 (ip), vehicle: saline.
The mark [9] stands for this setting: dose: 100.0 mg/kg/injection, schedule: Q01DX005 (ip), vehicle: saline.
Setting [10] is: dose: 50.0 mg/kg/injection, schedule: Q01DX005 (ip), vehicle: saline with Tween-80.
[11] abbreviates: dose: 100.0 mg/kg/injection, schedule: Q01DX005 (ip), vehicle: saline with Tween-80.
Setting [12] is: dose: 12.5 mg/kg/injection, schedule: Q01DX009 (ip), vehicle: saline with Tween-80.

“And” between values parts separate entries of the source, which are not always exact repeats. Equal values may be shown once. Toxic doses and inconclusive results are not listed.

For `S=C(S)n1nc(-c2ccccc2)c(N=Nc2cccc(Cl)c2Cl)c1-c1ccccc1`, the T/C reads like this: (dose: 100.0 mg/kg/injection, schedule: Q04DX002 (ip), vehicle: saline with Tween-80) 93 % of control; (dose: 200.0 mg/kg/injection, schedule: Q04DX002 (ip), vehicle: saline with Tween-80) 93 % of control; (dose: 400.0 mg/kg/injection, schedule: Q04DX002 (ip), vehicle: saline with Tween-80) 109 % of control.
As to `CSc1nc(NC2OCC(O)C(O)C2O)c(C=O)c(=O)n1C` (stereo unspecified), the T/C is, setting by setting: (dose: 60.0 mg/kg/injection, schedule: Q01DX005 (ip), vehicle: saline with Tween-80) 96 % of control; (dose: 120.0 mg/kg/injection, schedule: Q01DX005 (ip), vehicle: saline with Tween-80) 97 % of control.
With `NC1=NN(O)C2=CC([N+](=O)[O-])C=CC2=N1` (stereo unspecified), the T/C under setting [1] is 101 % of control, the T/C under setting [2] was 110 % of control and the T/C under setting [3] is 97 % of control.
As to `Cc1ccc(-n2c(=O)nc([O-])[n+]3ccccc23)cc1`, the T/C reads like this: under setting [4], 99 % of control; under setting [5], 98 % of control; (dose: 240.0 mg/kg/injection, schedule: Q01DX005 (ip), vehicle: Klucel (hydroxypropylcellulose) (HPC)) 96 % of control.
Regarding `CN(C)N=Nc1cn[nH]c1C(N)=O`, the T/C was 109 % of control (dose: 50.0 mg/kg/injection, schedule: Q04DX003 (ip), vehicle: Klucel (hydroxypropylcellulose) (HPC)); 161 % of control and 163 % of control (dose: 200.0 mg/kg/injection, schedule: Q04DX003 (ip), vehicle: Klucel (hydroxypropylcellulose) (HPC)).
Regarding `O=C(O)c1cccc(C(=O)O)c1S(=O)c1ccccc1` (stereo unspecified), the T/C is 102 % of control (dose: 100.0 mg/kg/injection, schedule: Q04DX002 (ip), vehicle: other); 103 % of control (dose: 200.0 mg/kg/injection, schedule: Q04DX002 (ip), vehicle: other); 94 % of control (dose: 400.0 mg/kg/injection, schedule: Q04DX002 (ip), vehicle: other).
On to `COC(=O)c1cc(=O)n(-c2ccccc2)c(SC)n1`, for which the T/C reads like this: (dose: 6.25 mg/kg/injection, schedule: Q04DX002 (ip), vehicle: Klucel (hydroxypropylcellulose) (HPC)) 106 % of control; (dose: 12.5 mg/kg/injection, schedule: Q04DX002 (ip), vehicle: Klucel (hydroxypropylcellulose) (HPC)) 96 % of control; (dose: 25.0 mg/kg/injection, schedule: Q04DX002 (ip), vehicle: Klucel (hydroxypropylcellulose) (HPC)) 98 % of control; (dose: 50.0 mg/kg/injection, schedule: Q04DX002 (ip), vehicle: Klucel (hydroxypropylcellulose) (HPC)) 104 % of control; (dose: 100.0 mg/kg/injection, schedule: Q04DX002 (ip), vehicle: Klucel (hydroxypropylcellulose) (HPC)) 100 % of control and 98 % of control.
`O=C(Nc1ccc(C2=NCCN2)c(O)c1)c1cccc(C(=O)Nc2ccc(C3=NCCN3)c(O)c2)c1`: the T/C reads like this: (dose: 25.0 mg/kg/injection, schedule: Q01DX005 (ip), vehicle: Klucel (hydroxypropylcellulose) (HPC)) 97 % of control; (dose: 50.0 mg/kg/injection, schedule: Q01DX005 (ip), vehicle: Klucel (hydroxypropylcellulose) (HPC)) 97 % of control; (dose: 100.0 mg/kg/injection, schedule: Q01DX005 (ip), vehicle: Klucel (hydroxypropylcellulose) (HPC)) 97 % of control; (dose: 200.0 mg/kg/injection, schedule: Q01DX005 (ip), vehicle: Klucel (hydroxypropylcellulose) (HPC)) 102 % of control.
On to `CCC1(CC)COC(C)(C(=O)O)OC1`, for which the T/C was 102 % of control under setting [6], 102 % of control under setting [1], 94 % of control under setting [2] and 96 % of control under setting [3].
In the case of `C=CC[P+](CC[P+](CC=C)(c1ccccc1)c1ccccc1)(c1ccccc1)c1ccccc1`, the T/C is 102 % of control (dose: 6.25 mg/kg/injection, schedule: Q04DX002 (ip), vehicle: saline) and 96 % of control (dose: 12.5 mg/kg/injection, schedule: Q04DX002 (ip), vehicle: saline).
`CCOC(=O)C(C(C)=O)C(=O)c1ccccc1` (stereo unspecified): the T/C runs as follows: (dose: 50.0 mg/kg/injection, schedule: Q01DX009 (ip), vehicle: saline + alcohol) 95 % of control; (dose: 100.0 mg/kg/injection, schedule: Q01DX009 (ip), vehicle: saline + alcohol) 101 % of control; (dose: 200.0 mg/kg/injection, schedule: Q01DX009 (ip), vehicle: saline + alcohol) 96 % of control.
Consider `S=C1NCC(c2ccc(Cl)cc2)[Se]1` (stereo unspecified), for which the T/C was 100 % of control (dose: 50.0 mg/kg/injection, schedule: Q01DX009 (ip), vehicle: DMSO) and 100 % of control (dose: 100.0 mg/kg/injection, schedule: Q01DX009 (ip), vehicle: DMSO).
As to `O=c1[nH]c2c(cnn2-c2ccc(Cl)cc2)c(=O)n1-c1cccc(Cl)c1`, the T/C is 88 % of control (dose: 12.5 mg/kg/injection, schedule: Q01DX009 (ip), vehicle: Klucel (hydroxypropylcellulose) (HPC)); 94 % of control (dose: 25.0 mg/kg/injection, schedule: Q01DX009 (ip), vehicle: Klucel (hydroxypropylcellulose) (HPC)); 100 % of control under setting [7].
For the compound `C1SSCSSS1`, the T/C was 115 % of control under setting [1], 117 % of control under setting [2] and 111 % of control under setting [3].
With `CC(C)(C#N)NCCNC(C)(C)C#N`, the T/C was 108 % of control (dose: 6.25 mg/kg/injection, schedule: Q01DX001 (ip), vehicle: saline) and 99 % of control (dose: 12.5 mg/kg/injection, schedule: Q01DX001 (ip), vehicle: saline).
As to `CCCCCCCCCCCCCCC(Br)C(=O)O` (stereo unspecified), the T/C is, setting by setting: (dose: 50.0 mg/kg/injection, schedule: Q01DX009 (ip), vehicle: saline) 101 % of control; (dose: 100.0 mg/kg/injection, schedule: Q01DX009 (ip), vehicle: saline) 103 % of control.
For `Cc1ccc(SSc2nnnn2C)cc1`, the T/C under setting [7] was 100 % of control and the T/C (dose: 100.0 mg/kg/injection, schedule: Q01DX009 (ip), vehicle: Klucel (hydroxypropylcellulose) (HPC)) is 88 % of control.
On to `CN(C=O)COC(=O)c1ccccc1`, for which the T/C reads like this: (dose: 31.25 mg/kg/injection, schedule: Q01DX005 (ip), vehicle: distilled water + Tween-80) 104 % of control; (dose: 62.5 mg/kg/injection, schedule: Q01DX005 (ip), vehicle: distilled water + Tween-80) 96 % of control; (dose: 125.0 mg/kg/injection, schedule: Q01DX005 (ip), vehicle: distilled water + Tween-80) 93 % of control; (dose: 250.0 mg/kg/injection, schedule: Q01DX005 (ip), vehicle: distilled water + Tween-80) 104 % of control.
With `CSCCCNCc1ccc([N+](=O)[O-])cc1`, the T/C reads like this: under setting [8], 97 % of control; under setting [9], 111 % of control.
Turning to `Cc1nc(C)c(Cl)c(Cc2ncnc3ccccc23)n1`, the T/C (dose: 25.0 mg/kg/injection, schedule: Q01DX005 (ip), vehicle: saline with Tween-80) is 106 % of control; the T/C under setting [10] was 96 % of control; the T/C under setting [11] is 102 % of control.
On to `CCOc1ccc(NC(=O)OCCN2CCN(CCc3ccccc3)C(C)C2)cc1` (stereo unspecified), for which the T/C is 97 % of control under setting [12], 94 % of control under setting [6] and 100 % of control under setting [1].
In the case of `CC(=O)C[n+]1ccccc1Sc1ccc(Cl)cc1`, the T/C under setting [10] is 111 % of control and the T/C under setting [11] was 111 % of control.
Regarding `C[Si](C)(C)C#CC(C(O)c1ccccc1)N1CCCC1` (stereo unspecified), the T/C runs as follows: (dose: 100.0 mg/kg/injection, schedule: Q04DX003 (ip), vehicle: saline) 94 % of control; (dose: 200.0 mg/kg/injection, schedule: Q04DX003 (ip), vehicle: saline) 92 % of control; (dose: 400.0 mg/kg/injection, schedule: Q04DX003 (ip), vehicle: saline) 101 % of control.
As to `CC(=O)Nc1ccsc1`, the T/C by setting is: (dose: 25.0 mg/kg/injection, schedule: Q01DX005 (ip), vehicle: saline) 102 % of control; under setting [8], 104 % of control; under setting [9], 109 % of control.
In the case of `O=C1OCC/C1=C1\CCCO1`, the T/C by setting is: under setting [12], 112 % of control and 97 % of control; under setting [6], 100 % of control and 102 % of control; under setting [1], 98 % of control and 99 % of control; under setting [2], 102 % of control and 108 % of control and 116 % of control; under setting [3], 112 % of control; (dose: 400.0 mg/kg/injection, schedule: Q01DX009 (ip), vehicle: saline with Tween-80) 113 % of control.
With `c1ccc(-c2ccc(NCCN3CCOCC3)nn2)cc1`, the T/C runs as follows: under setting [4], 100 % of control; under setting [5], 105 % of control.
